Results on one compound are retold here after patent US20240090506A1, “SURFACE MODIFICATION TO REGULATE PLANT GROWTH” (BIND-X GMBH, priority 2020, published 2024).

The subject of the test is Plantago lanceolate (ribwort plantain) and Poa annua (annual meadow grass). Nature of the test: Pot test with solid (powdered) alkali silicates or mixtures: weed coverage rate, degree of efficiency = weed penetration resistance (Example 2). The format is in vivo. To be noted: in the dosage used in the mixtures. The protocol: The experiment was carried out in the laboratory in plant pots with a volume of 450 cm^3. The application area was 78.5 cm^2. The soil substrate was a sifted land soil. Humus (humic soil) was used as a nutrient source for the desired plant. […] On top of the humic soil, 250 g of sifted land soil was placed. Both soil substrates were free of weed growth prior to treatment. Both soils contained minimal residues of endemic weed seeds or inflowing seeds. These present seeds were not sufficient for efficient weed growth. […] For this purpose, the weeds were worked into the top soil layer in a depth of 2-4 mm. Different alkali silicate powders were used in this experiment, which are specified in detail below. Hardeners and/or performance modifiers were added, if applicable. The solid formulations were mixed and then applied homogeneously to the soil surface. […] The coverage rate was determined by manual visual assessment of the plant pots at the specified times, as described in example 1. […] From this in turn the degree of efficiency according to Abbott was calculated as follows: Degree of efficiency=[coverage rate control(day x)−coverage rate product(day x)]/coverage rate control(day x)*100 Furthermore, the quality of the formed layer was observed regularly with respect to crack formation. […]

`CC(=O)[O-].CC(=O)[O-].[Ca+2]` [calcium acetate]: the “weed penetration resistance of the performance modifier alone” value is reported as “An effect is observed only at the beginning of the experiment”.
